Measured values as given in ChEMBL document CHEMBL1201862, “PubChem BioAssay data set” (2004).
Activity calls are given as the source filed them.

Legend:
HEK293 = assay: EBV LMP1 TES2 canonical NF-kB signalling blockers – cell-based, HEK293, luciferase, cherry-pick, dose response (AID 588343); format: functional; conditions: Homo sapiens
cells = format: functional, cell-based
[1] = target: T1, Nuclear receptor subfamily 0 group B member 1 (Homo sapiens, UniProt P51843); format: functional, cell-based;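 further: HEK293T cells transfected with SF-1 and DAX-1 plus StAR promoter luciferase reporter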
T1 sequence (P51843 whole entry): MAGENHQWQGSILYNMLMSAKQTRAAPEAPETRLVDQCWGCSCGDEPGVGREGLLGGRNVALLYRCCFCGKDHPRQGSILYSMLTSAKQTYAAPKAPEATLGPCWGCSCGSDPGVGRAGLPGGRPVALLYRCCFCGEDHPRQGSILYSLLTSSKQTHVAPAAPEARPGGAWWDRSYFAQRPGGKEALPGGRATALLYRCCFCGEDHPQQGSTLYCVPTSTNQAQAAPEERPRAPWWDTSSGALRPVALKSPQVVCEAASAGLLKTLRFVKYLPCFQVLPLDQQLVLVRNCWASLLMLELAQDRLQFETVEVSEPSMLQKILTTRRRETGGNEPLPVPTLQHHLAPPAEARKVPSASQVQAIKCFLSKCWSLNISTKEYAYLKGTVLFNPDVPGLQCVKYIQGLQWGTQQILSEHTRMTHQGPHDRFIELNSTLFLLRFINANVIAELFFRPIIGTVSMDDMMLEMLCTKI

[2] = target: Luciferin 4-monooxygenase (Photinus pyralis, UniProt P08659); assay: inhibition of purified Photinus pyralis luciferase – biochemical, luminescence, dose response (AID 1891)
[3] = Luminescence Cell-Based Dose Retest to Confirm Inhibitors of Cancer Stem Cells. [Related pubchem assays (depositor defined):AID2717, AID2721]; format: functional; conditions: Homo sapiens
[4] = Luminescence Cell-Based Dose Confirmation HTS to Identify Inhibitors of Platelet Dense Granule Release. [Related pubchem assays: 1663 (Primary HTS), 1678 (Summary of Project)]; format: functional
[5] = NIH-3T3 fibroblast cytotoxicity, dose response, cytotoxicity control, cell-based, fluorescence, Alamar Blue, secondary assay (AID 2327); format: functional;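 further: NIH-3T3 mouse fibroblasts cultured with fluconazole at 8 µg/mL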
[6] = fluconazole-exposed Candida albicans growth modulators – fluorescence, retest, confirmation (AID 2467); format: functional, cell-based
Paired box protein Pax-8 = Paired box protein Pax-8 (Homo sapiens, UniProt Q06710); assay: PAX8 transcriptional activity inhibition in RMG-I – RMG-I cells, luciferase, cherry-pick, dose response (AID 687027); format: functional, cell-based;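 further: luciferase reporter driven by Pax8 target thyroperoxidase promoter measured by SteadyGlo luminescence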
Genome polyprotein = Genome polyprotein (dengue virus type 2, UniProt P29990); assay: flavivirus cap methylation enzyme inhibition – biochemical, confirmation dose response, primary screen (AID 588689); format: functional
Protein RecA = target: T2, Protein RecA (Mycobacterium tuberculosis, UniProt P9WHJ3); assay: Fluorescence Cell-Free Homogeneous Dose Retest to Identify Inhibitors of RecA-Intein Splicing Activity. [Related pubchem assays (depositor defined):AID2097, AID2223, AID489010, AID492950]; format: functional
T2 sequence (P9WHJ3 whole entry): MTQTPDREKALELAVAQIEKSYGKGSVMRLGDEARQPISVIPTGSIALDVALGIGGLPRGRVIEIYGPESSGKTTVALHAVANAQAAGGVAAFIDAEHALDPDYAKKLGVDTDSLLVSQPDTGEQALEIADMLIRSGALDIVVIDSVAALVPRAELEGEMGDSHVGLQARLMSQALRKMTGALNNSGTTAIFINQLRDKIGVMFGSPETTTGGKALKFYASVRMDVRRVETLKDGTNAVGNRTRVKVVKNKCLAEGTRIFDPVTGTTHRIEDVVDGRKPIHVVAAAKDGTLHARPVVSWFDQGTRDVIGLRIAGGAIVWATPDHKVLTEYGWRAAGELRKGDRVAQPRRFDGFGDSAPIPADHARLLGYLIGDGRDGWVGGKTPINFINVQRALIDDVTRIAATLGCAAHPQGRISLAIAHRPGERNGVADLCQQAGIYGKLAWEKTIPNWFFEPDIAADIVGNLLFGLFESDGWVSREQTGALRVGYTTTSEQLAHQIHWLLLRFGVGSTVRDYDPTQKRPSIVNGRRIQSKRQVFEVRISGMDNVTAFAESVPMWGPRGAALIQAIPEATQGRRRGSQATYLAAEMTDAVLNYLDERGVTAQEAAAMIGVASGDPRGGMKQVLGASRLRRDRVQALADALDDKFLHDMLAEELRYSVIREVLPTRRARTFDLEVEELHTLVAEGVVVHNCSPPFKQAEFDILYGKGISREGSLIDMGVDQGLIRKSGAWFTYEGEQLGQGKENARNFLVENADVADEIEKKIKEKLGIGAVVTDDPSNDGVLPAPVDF

[7] = target: T3, Polyadenylate-binding protein 1 (Homo sapiens, UniProt P11940); assay: MLLE domain peptide-binding blockers, IC50 – biochemical, fluorescence polarization, FITC-PAM2 peptide, dose response (AID 602259); format: functional; conditions: read-out: IC50_Mean
[8] = target: T3, Polyadenylate-binding protein 1; assay: MLLE binding blockers, Cy5 peptide tracer – biochemical, fluorescence polarization, Cy5-PAM2 peptide, secondary, miRNA deadenylation inhibitor project, dose response (AID 602260); format: functional; conditions: read-out: IC50_Mean
[9] = target: T4, Replicative DNA helicase DnaB (Mycobacterium tuberculosis, UniProt P9WMR3); assay: DnaB intein splicing inhibitors, dose response, biochemical, cell-free fluorescence (AID 449749); format: functional
T4 sequence (P9WMR3 whole entry): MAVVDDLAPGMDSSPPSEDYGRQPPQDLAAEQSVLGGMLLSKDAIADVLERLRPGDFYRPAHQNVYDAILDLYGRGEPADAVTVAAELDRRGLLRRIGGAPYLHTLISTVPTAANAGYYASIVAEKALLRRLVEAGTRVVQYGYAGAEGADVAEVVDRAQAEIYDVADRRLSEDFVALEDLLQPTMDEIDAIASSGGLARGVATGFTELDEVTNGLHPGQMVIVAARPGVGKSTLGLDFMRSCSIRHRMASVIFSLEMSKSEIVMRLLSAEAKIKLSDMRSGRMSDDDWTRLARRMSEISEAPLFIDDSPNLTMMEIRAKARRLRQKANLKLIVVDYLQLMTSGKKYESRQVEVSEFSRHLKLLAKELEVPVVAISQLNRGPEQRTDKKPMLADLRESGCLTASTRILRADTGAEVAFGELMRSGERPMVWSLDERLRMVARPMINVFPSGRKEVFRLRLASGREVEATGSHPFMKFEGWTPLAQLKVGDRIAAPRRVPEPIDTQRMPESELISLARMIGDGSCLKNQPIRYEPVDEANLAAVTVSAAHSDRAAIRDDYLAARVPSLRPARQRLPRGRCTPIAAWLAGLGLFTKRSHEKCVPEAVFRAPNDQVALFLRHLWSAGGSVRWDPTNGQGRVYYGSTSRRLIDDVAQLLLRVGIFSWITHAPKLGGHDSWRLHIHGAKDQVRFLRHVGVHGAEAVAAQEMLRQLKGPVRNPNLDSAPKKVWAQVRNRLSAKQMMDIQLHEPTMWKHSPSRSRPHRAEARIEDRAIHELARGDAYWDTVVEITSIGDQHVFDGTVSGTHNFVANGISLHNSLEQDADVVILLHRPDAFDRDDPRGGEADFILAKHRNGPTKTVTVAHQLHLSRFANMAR

[10] = target: T5, Tyrosyl-DNA phosphodiesterase 2 (Homo sapiens, UniProt O95551); assay: potency against TDP2 phosphodiesterase activity – biochemical, epi absorbance, IC50, dose response (AID 743297)
T5 sequence (O95551 whole entry): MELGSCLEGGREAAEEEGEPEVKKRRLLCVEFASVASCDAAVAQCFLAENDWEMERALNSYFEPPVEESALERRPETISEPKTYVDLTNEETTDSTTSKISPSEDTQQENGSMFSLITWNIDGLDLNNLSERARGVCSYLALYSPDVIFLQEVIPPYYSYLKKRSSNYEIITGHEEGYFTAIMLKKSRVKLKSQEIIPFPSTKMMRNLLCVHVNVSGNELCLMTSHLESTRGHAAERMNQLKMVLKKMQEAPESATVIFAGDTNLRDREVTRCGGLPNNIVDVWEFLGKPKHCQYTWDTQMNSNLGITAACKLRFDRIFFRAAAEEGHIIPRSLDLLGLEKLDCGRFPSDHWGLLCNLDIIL

T3 sequence (P11940 whole entry, the tested form may be a part): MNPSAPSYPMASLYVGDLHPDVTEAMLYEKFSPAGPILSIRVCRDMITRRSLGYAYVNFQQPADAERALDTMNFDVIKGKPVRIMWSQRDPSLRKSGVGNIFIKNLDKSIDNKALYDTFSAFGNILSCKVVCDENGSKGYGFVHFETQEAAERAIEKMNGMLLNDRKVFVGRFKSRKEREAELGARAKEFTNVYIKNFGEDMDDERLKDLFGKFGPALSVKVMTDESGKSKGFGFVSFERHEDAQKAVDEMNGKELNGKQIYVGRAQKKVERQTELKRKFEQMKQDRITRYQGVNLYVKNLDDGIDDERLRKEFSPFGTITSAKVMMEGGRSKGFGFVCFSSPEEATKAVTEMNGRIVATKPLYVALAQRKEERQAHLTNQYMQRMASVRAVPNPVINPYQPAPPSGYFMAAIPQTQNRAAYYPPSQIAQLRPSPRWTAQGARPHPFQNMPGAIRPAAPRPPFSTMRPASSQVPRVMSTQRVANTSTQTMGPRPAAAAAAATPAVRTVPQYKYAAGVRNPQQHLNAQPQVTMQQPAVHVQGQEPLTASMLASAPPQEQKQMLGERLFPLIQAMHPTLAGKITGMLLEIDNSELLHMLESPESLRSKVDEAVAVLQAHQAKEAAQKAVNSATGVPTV
Sequence of Luciferin 4-monooxygenase (P08659 whole entry): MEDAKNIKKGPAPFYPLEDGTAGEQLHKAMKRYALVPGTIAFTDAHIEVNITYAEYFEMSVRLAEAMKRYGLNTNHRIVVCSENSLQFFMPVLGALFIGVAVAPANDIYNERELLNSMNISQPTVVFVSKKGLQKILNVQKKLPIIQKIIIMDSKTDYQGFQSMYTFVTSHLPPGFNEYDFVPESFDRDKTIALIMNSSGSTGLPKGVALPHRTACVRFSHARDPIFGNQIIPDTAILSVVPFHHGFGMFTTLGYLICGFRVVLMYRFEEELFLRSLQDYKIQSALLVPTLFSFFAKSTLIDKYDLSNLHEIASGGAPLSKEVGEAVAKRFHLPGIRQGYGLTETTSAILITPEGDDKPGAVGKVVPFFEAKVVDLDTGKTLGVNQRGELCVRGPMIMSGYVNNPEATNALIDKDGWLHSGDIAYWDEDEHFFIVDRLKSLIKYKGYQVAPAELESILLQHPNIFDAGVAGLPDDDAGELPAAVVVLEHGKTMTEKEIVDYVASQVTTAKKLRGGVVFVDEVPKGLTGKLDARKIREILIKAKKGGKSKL
Sequence of Paired box protein Pax-8 (Q06710 whole entry): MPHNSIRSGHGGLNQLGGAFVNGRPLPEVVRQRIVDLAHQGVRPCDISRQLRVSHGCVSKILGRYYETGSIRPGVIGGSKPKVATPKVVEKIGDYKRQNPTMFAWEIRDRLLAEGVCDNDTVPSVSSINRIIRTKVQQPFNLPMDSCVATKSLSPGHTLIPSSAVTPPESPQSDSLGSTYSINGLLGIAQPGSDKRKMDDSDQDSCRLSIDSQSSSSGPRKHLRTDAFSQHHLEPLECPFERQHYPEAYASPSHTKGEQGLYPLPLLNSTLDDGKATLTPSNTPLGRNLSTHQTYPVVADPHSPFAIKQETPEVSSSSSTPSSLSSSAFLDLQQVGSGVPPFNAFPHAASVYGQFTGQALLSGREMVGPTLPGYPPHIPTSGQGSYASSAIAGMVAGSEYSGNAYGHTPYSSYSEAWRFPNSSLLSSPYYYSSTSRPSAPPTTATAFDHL
Sequence of Genome polyprotein (P29990 2492-3391 limits assumed): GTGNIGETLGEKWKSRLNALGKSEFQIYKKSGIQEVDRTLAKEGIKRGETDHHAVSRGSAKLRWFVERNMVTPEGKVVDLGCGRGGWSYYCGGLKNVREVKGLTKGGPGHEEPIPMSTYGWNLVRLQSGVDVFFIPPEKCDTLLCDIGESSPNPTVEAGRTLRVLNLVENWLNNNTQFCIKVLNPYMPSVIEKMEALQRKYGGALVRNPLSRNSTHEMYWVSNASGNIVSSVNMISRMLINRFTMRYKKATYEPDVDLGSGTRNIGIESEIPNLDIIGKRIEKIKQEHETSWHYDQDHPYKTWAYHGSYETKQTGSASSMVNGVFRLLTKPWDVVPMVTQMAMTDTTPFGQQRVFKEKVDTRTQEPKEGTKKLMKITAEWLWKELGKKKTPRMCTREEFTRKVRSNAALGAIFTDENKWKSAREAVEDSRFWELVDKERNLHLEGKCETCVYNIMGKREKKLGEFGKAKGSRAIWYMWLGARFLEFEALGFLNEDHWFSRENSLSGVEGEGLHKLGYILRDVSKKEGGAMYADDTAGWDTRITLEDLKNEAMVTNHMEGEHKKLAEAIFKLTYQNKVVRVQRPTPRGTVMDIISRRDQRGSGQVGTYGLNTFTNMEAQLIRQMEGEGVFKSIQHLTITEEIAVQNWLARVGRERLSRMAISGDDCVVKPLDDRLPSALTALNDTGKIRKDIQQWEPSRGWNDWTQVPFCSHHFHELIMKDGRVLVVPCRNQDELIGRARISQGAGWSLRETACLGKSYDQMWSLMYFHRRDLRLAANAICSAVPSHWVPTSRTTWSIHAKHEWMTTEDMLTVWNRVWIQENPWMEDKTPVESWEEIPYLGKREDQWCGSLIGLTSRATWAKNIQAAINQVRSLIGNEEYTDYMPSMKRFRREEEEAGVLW

With `O=C(O)c1cc(/C=C/c2ccc(N3CCOCC3)cc2)nc2ccccc12` the AC50 (HEK293) was 3.14 µM (active), the IC50 (cells) was > 67.5 µM (inactive) and the IC50 [1] was > 67.5 µM (inactive).
For `CC(=O)Oc1ccc2c(=O)c(-c3nc4ccccc4s3)coc2c1`, the EC50 [2] was 3.63 µM (active), the AC50 [3] was 6.27 µM (active) and the IC50 (cells) was > 67.5 µM (inactive). For the same compound, the EC50 [4] was 3.83 µM (active), the IC50 [1] was > 67.5 µM (inactive) and the EC50 [5] was > 150 µM (inactive). For the same compound, the EC50 [6] was 3.08 µM (active).
With `CCOCC(=O)NC1CCc2cc(OC(=O)COCC)c(OC)c(OC)c2-c2ccc(SC)c(=O)cc21` (centres undefined) the AC50 (Paired box protein Pax-8) was < 0.26 µM (active), the IC50 (cells) was > 67.5 µM (inactive) and the IC50 [1] was 0.244 µM (active).
In the case of `Cc1[nH]n(-c2ccccc2)c(=O)c1C(c1ccc(C(=O)O)cc1)c1c(C)[nH]n(-c2ccccc2)c1=O`, the IC50 (Genome polyprotein) is reported as 20.9 µM (active), the EC50 (Protein RecA) is reported as 0.656 µM (active) and the IC50 [7] is reported as > 66 µM (inactive). For the same compound, the IC50 [8] was > 66 µM (inactive), the AC50 [9] was 0.915 µM (active) and the IC50 [10] was > 0.528 µM (active).
